# Measurements published in PubChem BioAssay (NCI).
#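 Five concentrations, 48 hours, 96-well plates. At the TGI there is no net growth.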
# Assays:
# Assay in all cases: NCI tumour cell line growth inhibition, 48 h
# CAKI-1 renal = system: CAKI-1 renal
# DU-145 prostate = system: DU-145 prostate
# MDA-MB-435 = system: MDA-MB-435
# SK-MEL-28 melanoma = system: SK-MEL-28 melanoma
# HT29 colon = system: HT29 colon
# UO-31 renal = system: UO-31 renal
# SK-MEL-5 melanoma = system: SK-MEL-5 melanoma
# NCI-H460 lung = system: NCI-H460 lung
# NCI/ADR-RES ovarian = system: NCI/ADR-RES ovarian
# CCRF-CEM leukemia = system: CCRF-CEM leukemia
# SW-620 colon = system: SW-620 colon
# SNB-19 CNS = system: SNB-19 CNS
# HCT-116 colon = system: HCT-116 colon
# KM12 colon = system: KM12 colon
# SK-MEL-2 melanoma = system: SK-MEL-2 melanoma
# HOP-62 NSCLC = system: HOP-62 NSCLC
# HOP-92 NSCLC = system: HOP-92 NSCLC
# ACHN renal = system: ACHN renal
# OVCAR-3 ovarian = system: OVCAR-3 ovarian
# COLO 205 colon = system: COLO 205 colon
# SNB-75 CNS = system: SNB-75 CNS
# RPMI-8226 leukemia = system: RPMI-8226 leukemia
# HCC-2998 colon = system: HCC-2998 colon
# IGROV1 ovarian = system: IGROV1 ovarian
# RXF 393 renal = system: RXF 393 renal
# UACC-257 melanoma = system: UACC-257 melanoma
# OVCAR-8 ovarian = system: OVCAR-8 ovarian
# HL-60(TB) leukemia = system: HL-60(TB) leukemia
# SF-268 CNS = system: SF-268 CNS
# A549 NSCLC = system: A549 NSCLC
# A498 renal = system: A498 renal
# MDA-N = system: MDA-N
# PC-3 prostate = system: PC-3 prostate
# SF-539 CNS = system: SF-539 CNS
# MALME-3M melanoma = system: MALME-3M melanoma
# UACC-62 melanoma = system: UACC-62 melanoma
# SK-OV-3 ovarian = system: SK-OV-3 ovarian
# HCT-15 colon = system: HCT-15 colon
# HS 578T breast = system: HS 578T breast
# MDA-MB-231 breast = system: MDA-MB-231 breast
# TK-10 renal = system: TK-10 renal
# BT-549 breast = system: BT-549 breast
# EKVX NSCLC = system: EKVX NSCLC
# SF-295 CNS = system: SF-295 CNS
# M14 melanoma = system: M14 melanoma
# OVCAR-4 ovarian = system: OVCAR-4 ovarian
# K-562 leukemia = system: K-562 leukemia
# NCI-H23 lung = system: NCI-H23 lung
# U251 CNS = system: U251 CNS
# 786-0 renal = system: 786-0 renal
# MCF7 breast = system: MCF7 breast
# NCI-H226 lung = system: NCI-H226 lung
# T-47D breast = system: T-47D breast
# OVCAR-5 ovarian = system: OVCAR-5 ovarian
# NCI-H522 lung = system: NCI-H522 lung
# LOX IMVI melanoma = system: LOX IMVI melanoma
# SN12C renal = system: SN12C renal
# SR leukemia = system: SR leukemia
# MOLT-4 leukemia = system: MOLT-4 leukemia
compound,measurement,setting,value
CC(=O)n1cc(C2CC23N=C(c2ccccc2)OC3=O)c2ccccc21 (stereo unspecified),TGI,CAKI-1 renal,36 µM
same,TGI,DU-145 prostate,33.2 µM
same,TGI,MDA-MB-435,72.9 µM
same,TGI,SK-MEL-28 melanoma,45.6 µM
same,TGI,HT29 colon,39.9 µM
same,TGI,UO-31 renal,30.9 µM
same,TGI,SK-MEL-5 melanoma,40.2 µM
same,TGI,NCI-H460 lung,> 64.9 µM
same,TGI,NCI/ADR-RES ovarian,> 56 µM
same,TGI,CCRF-CEM leukemia,7.86 µM
same,TGI,SW-620 colon,56.7 µM
same,TGI,SNB-19 CNS,> 89.7 µM
same,TGI,HCT-116 colon,27.9 µM
same,TGI,KM12 colon,48.7 µM
same,TGI,SK-MEL-2 melanoma,44.5 µM
same,TGI,HOP-62 NSCLC,> 100 µM
same,TGI,HOP-92 NSCLC,52.5 µM
same,TGI,ACHN renal,38.3 µM
same,TGI,OVCAR-3 ovarian,53.4 µM
same,TGI,COLO 205 colon,44.8 µM
same,TGI,SNB-75 CNS,39.6 µM
same,TGI,RPMI-8226 leukemia,26.2 µM
same,TGI,HCC-2998 colon,30.8 µM
same,TGI,IGROV1 ovarian,38.3 µM
same,TGI,RXF 393 renal,34.6 µM
same,TGI,UACC-257 melanoma,32.8 µM
same,TGI,OVCAR-8 ovarian,35.3 µM
same,TGI,HL-60(TB) leukemia,6.12 µM
same,TGI,SF-268 CNS,46.3 µM
same,TGI,A549 NSCLC,59.9 µM
same,TGI,A498 renal,56.7 µM
same,TGI,MDA-N,81.7 µM
same,TGI,PC-3 prostate,41.5 µM
same,TGI,SF-539 CNS,41.2 µM
same,TGI,MALME-3M melanoma,58.2 µM
same,TGI,UACC-62 melanoma,31.7 µM
same,TGI,SK-OV-3 ovarian,> 100 µM
same,TGI,HCT-15 colon,58.9 µM
same,TGI,HS 578T breast,68.6 µM
same,TGI,MDA-MB-231 breast,46.4 µM
same,TGI,TK-10 renal,53.8 µM
same,TGI,BT-549 breast,30.3 µM
same,TGI,EKVX NSCLC,51.1 µM
same,TGI,SF-295 CNS,> 100 µM
same,TGI,M14 melanoma,34.9 µM
same,TGI,OVCAR-4 ovarian,42.4 µM
same,TGI,K-562 leukemia,77.6 µM
same,TGI,NCI-H23 lung,42 µM
same,TGI,U251 CNS,36.8 µM
same,TGI,786-0 renal,33.5 µM
same,TGI,MCF7 breast,42.9 µM
same,TGI,NCI-H226 lung,44.5 µM
same,TGI,T-47D breast,> 100 µM
same,TGI,OVCAR-5 ovarian,49.7 µM
same,TGI,NCI-H522 lung,37.3 µM
same,TGI,LOX IMVI melanoma,35.8 µM
same,TGI,SN12C renal,31.9 µM
same,TGI,SR leukemia,40.3 µM
N#Cc1c(-c2ccc(Cl)cc2)cc(-c2ccc(Nc3ccnc4cc(Cl)ccc34)cc2)[nH]c1=O,TGI,CAKI-1 renal,> 100 µM
same,TGI,DU-145 prostate,> 100 µM
same,TGI,MDA-MB-435,> 100 µM
same,TGI,SK-MEL-28 melanoma,> 100 µM
same,TGI,MOLT-4 leukemia,> 100 µM
same,TGI,HT29 colon,> 100 µM
same,TGI,UO-31 renal,> 100 µM
same,TGI,SK-MEL-5 melanoma,> 100 µM
same,TGI,NCI-H460 lung,> 100 µM
same,TGI,NCI/ADR-RES ovarian,> 100 µM
same,TGI,CCRF-CEM leukemia,31.6 µM
same,TGI,SW-620 colon,> 100 µM
same,TGI,SNB-19 CNS,> 96.7 µM
same,TGI,HCT-116 colon,> 100 µM
same,TGI,KM12 colon,> 100 µM
same,TGI,SK-MEL-2 melanoma,> 100 µM
same,TGI,HOP-62 NSCLC,> 62.8 µM
same,TGI,HOP-92 NSCLC,61.2 µM
same,TGI,ACHN renal,> 85.4 µM
same,TGI,OVCAR-3 ovarian,> 100 µM
same,TGI,COLO 205 colon,> 100 µM
same,TGI,SNB-75 CNS,> 100 µM
same,TGI,RPMI-8226 leukemia,> 100 µM
same,TGI,HCC-2998 colon,> 100 µM
same,TGI,IGROV1 ovarian,> 100 µM
same,TGI,RXF 393 renal,> 68 µM
same,TGI,UACC-257 melanoma,> 100 µM
same,TGI,OVCAR-8 ovarian,> 100 µM
same,TGI,HL-60(TB) leukemia,> 100 µM
same,TGI,SF-268 CNS,> 100 µM
same,TGI,A549 NSCLC,> 100 µM
same,TGI,A498 renal,> 88.9 µM
same,TGI,MDA-N,> 100 µM
same,TGI,PC-3 prostate,> 100 µM
same,TGI,SF-539 CNS,> 100 µM
same,TGI,MALME-3M melanoma,> 100 µM
same,TGI,UACC-62 melanoma,> 100 µM
same,TGI,SK-OV-3 ovarian,> 79 µM
same,TGI,HCT-15 colon,> 100 µM
same,TGI,HS 578T breast,62.4 µM
same,TGI,MDA-MB-231 breast,> 67.4 µM
same,TGI,TK-10 renal,> 55.3 µM
same,TGI,BT-549 breast,54.2 µM
same,TGI,EKVX NSCLC,> 100 µM
same,TGI,SF-295 CNS,> 62.1 µM
same,TGI,M14 melanoma,> 100 µM
same,TGI,OVCAR-4 ovarian,> 100 µM
same,TGI,K-562 leukemia,> 100 µM
same,TGI,NCI-H23 lung,> 75.9 µM
same,TGI,U251 CNS,> 61 µM
same,TGI,786-0 renal,> 100 µM
same,TGI,MCF7 breast,> 100 µM
same,TGI,NCI-H226 lung,> 100 µM
same,TGI,T-47D breast,> 100 µM
same,TGI,OVCAR-5 ovarian,> 100 µM
same,TGI,NCI-H522 lung,> 100 µM
same,TGI,LOX IMVI melanoma,> 100 µM
same,TGI,SR leukemia,> 100 µM
